In patent US10758560B2, “Methods for treating sarcopenia and frailty” (NESTEC S.A., priority 2015, dated 2020):

B1: neuregulin-1: NRG1 beta EGF domain from Reprokine (catalog number RKQ02297); SEQ ID NO: 7 (protein, listed as Homo sapiens)
chain: SHLVKCAEKEKTFCVNGGECFMVKDLSNPSRYLCKCPNEFTGDRCQNYVMASFYKHLGIEF

What was measured:
HSMM human myoblasts = experiment: TNFa-induced myotube atrophy in HSMM human myoblasts (fusion index); assay type: cell-based; conditions: TNFa 40 ng/ml for 4 days; 1 nM; FIG. 7
Protocol: HSMM human myoblasts were grown in vitro and induced to differentiate into mature myotubes. Myotube atrophy was induced by incubation with TNFa at 40 ng/ml for 4 days. MeCbl (1 nM) and AdoCbl (1 nM) were incubated together with TNFa to test their effect on induced atrophy. IGF1 is used as a positive control at 15 nM to prevent muscle atrophy. After 4 days of treatment, cells were stained for nuclei and myosin heavy chain to quantify the proportion of nuclei inside myotubes (i.e fusion index).

[1] = tested on: neuromuscular junctions (nerve and muscle co-cultures); experiment: Nerve and muscle co-cultures, beta-amyloid (2.5 μM) induced damage of neuromuscular junctions; assay type: cell-based; conditions: for protection from Ab-induced damage (neuromuscular junction size, number and neurite network): 1 or 100 nM, FIG. 4
Protocol: Nerve and muscle co-cultures were grown in vitro until neuromuscular junctions were mature. Damage was induced using beta-amyloid (Ab) incubation (2.5 μM) and riluzole (5 μM) was used as a positive control for preserving neuromuscular junctions from Ab-induced damage.
The effect of neuregulin-1 (NRG1; various concentrations, as specified in FIG. 2) on Ab-induced damage was evaluated by measuring the neuromuscular junction (NMJ) size. 6 wells per group were analysed and compared to a control condition. The uninjured control condition is the neuromuscular junction size without Ab treatment. All other conditions are to be compared to the Ab treatment alone which represents the reference value for damaged neuromuscular junction size.
Nerve and muscle co-cultures were grown in vitro until neuromuscular junctions were mature. Damage was induced using beta-amyloid (Ab) incubation (2.5 μM) and riluzole (5 μM) was used as a positive control for preserving neuromuscular junctions from Ab-induced damage. The effect of methylcobalamin (MeCbl; 1 or 100 nM) and adenosylcobalamin (AdenoCbl; 1 or 100 nM) on Ab-induced damage was evaluated by measuring the neuromuscular junction (NMJ) number and size, and the neurite network. 6 wells per group were analysed and compared to a control condition (CTL). The uninjured control condition is the neuromuscular junction size without Ab treatment. All other conditions are to be compared to the Ab treatment alone which represents the reference value for damaged neuromuscular junction size.

[2] = tested on: Tibialis anterior muscle fibers; experiment: Effect of vitamin B12 on skeletal muscle in vivo: tibialis anterior fiber size in aged rats; design: species or system rat; conditions: 1 mg/kg s.c. 3 times per week for 5 months, type 2A fibers, FIG. 6
Protocol: Pre-sarcopenic rats aged 16 months were treated for 5 months with either adenosylcobalamin (AdoCbl, C0884, Sigma aldrich), methylcobalamin (MeCbl, M9756, Sigma aldrich) or saline. AdoCbl and MeCbl were injected sub-cutaneously at 1 mg/kg body weight 3 time per week. Tibialis Anterior (TA) was then dissected out and frozen for further analyses. For histology, TA was cryo-sectioned at 10 μm and stained with laminin (L9393, Sigma aldrich) to delineate fibers. Specific fiber types 1, 2A and 2B were immunolabeled subsequently with appropriate antibodies (clones BADS, BFF3, and SC71 respectively, DSHB). Images were acquired using a slide scanner (VS-120, Olympus) and analyzed using an in-house MetaXpress journal (Molecular Devices, Sunnyvale, USA). Images from old animals were compared to a group of adult healthy rats (8 months at start of experiment) injected with saline control. For gene expression analysis, total RNA was extracted using the miRNeasy Mini Kit (Qiagen) according to the manufacturer's instruction and RNA quality was checked using the Standard Sensitivity RNA Analysis Kit on a Fragment Analyzer (Advanced Analytical Technologies). Samples were then hybridized on Affymetrix Rat 230 PM 96-Array following standard Affymetrix protocol, based on the Eberwine T7 procedure. […]

[3] = tested on: neuromuscular junctions (nerve and muscle co-cultures); experiment: Nerve and muscle co-cultures, stronger beta-amyloid (10 μM) induced damage of neuromuscular junctions; assay type: cell-based; conditions: longer incubation, NRG1 30 nM and/or AdoCbl 1 nM, FIG. 5
Protocol: Nerve and muscle co-cultures were grown in vitro until neuromuscular junctions were mature. Damage was induced using beta-amyloid (Ab) incubation (10 μM) and riluzole (5 μM) was used as a positive control for preserving neuromuscular junctions from Ab-induced damage. The effect of neuregulin-1 (NRG1; 30 nM) and/or adenosylcobalamin (AdoCbl; 1 nM) on Ab-induced damage was evaluated by measuring the neuromuscular junction (NMJ) size or number. 6 wells per group were analysed and compared to a control condition (CTL) without Ab-induced damage.

[4] = tested on: hind-limb skeletal muscle; experiment: Age-induced atrophy of skeletal muscle in pre-sarcopenic rats (hind-limb skeletal muscle mass); assay type: in vivo, rat; conditions: pre-sarcopenic rats aged 16 months, 1 μg/kg s.c. 3 times per week for 5 months, versus saline controls; FIG. 3
Protocol: Pre-sarcopenic rats aged 16 months were treated for 5 months with either neuregulin-1 (NRG1; NRG1 beta EGF domain from Reprokine (catalog number RKQ02297)) or saline. NRG1 was injected sub-cutaneously at 1 μg/kg body weight 3 time per week. Hind-limb skeletal muscle mass was then evaluated and compared to a group of adult healthy rats (8 months at start of experiment) injected with saline control. […]

Molecule | protection from muscle atrophy (fusion index) (HSMM human myoblasts) | protection from Ab-induced damage (neuromuscular junction size, number and neurite network) [1] | increase in muscle fiber size [2] | rescue of neuromuscular junctions (number and size) from stronger Ab-induced damage [3] | hind-limb skeletal muscle mass [4] | protection of the neuromuscular system from Ab-induced damage (neuromuscular junction size) ([1]; NRG1 at a dose of 30 nM, FIG. 2)
C/C1=C2/[N-][C@H]([C@H](CC(N)=O)[C@@]2(C)CCC(=O)NC[C@H](C)OP(=O)([O-])O[C@H]2[C@@H](O)[C@@H](n3cnc4cc(C)c(C)cc43)O[C@@H]2CO)[C@]2(C)N=C(/C(C)=C3N=C(/C=C4N=C1[C@@H](CCC(N)=O)C\4(C)C)[C@@H](CCC(N)=O)[C@]\3(C)CC(N)=O)[C@@H](CCC(N)=O)[C@]2(C)CC(N)=O.[CH3-].[Co+3] [methylcobalamin, Methylcobalamin] | able to protect from muscle atrophy | not methylcobalamin, was also able to protect the system | not methylcobalamin, was also able to induce an increase in muscle fiber size | – | – | –
C/C1=C2/[N-][C@H]([C@H](CC(N)=O)[C@@]2(C)CCC(=O)NC[C@@H](C)OP(=O)([O-])O[C@H]2[C@@H](O)[C@@H](n3cnc4cc(C)c(C)cc43)O[C@@H]2CO)[C@]2(C)N=C(/C(C)=C3N=C(/C=C4N=C1[C@@H](CCC(N)=O)C\4(C)C)[C@@H](CCC(N)=O)[C@]\3(C)CC(N)=O)[C@@H](CCC(N)=O)[C@]2(C)CC(N)=O.[CH2-][C@H]1O[C@@H](n2cnc3c(N)ncnc32)[C@H](O)[C@@H]1O.[Co] [adenosylcobalamin, Adenosylcobalamin] | – | able to protect the system at both doses tested | able to induce an increase in muscle fiber size | neither neuregulin-1 nor adenosylcobalamin alone could rescue the system | – | –
B1 | – | – | – | neither neuregulin-1 nor adenosylcobalamin alone could rescue the system | significantly higher mass compared to controls | able to protect the neuromuscular system from damage
